From BindingDB's records for PubMed 35442672 (Fudan University, 2022)

Molecular target: T1, Dual specificity mitogen-activated protein kinase kinase 3 (Homo sapiens, UniProt P46734)
T1 sequence (P46734 whole entry): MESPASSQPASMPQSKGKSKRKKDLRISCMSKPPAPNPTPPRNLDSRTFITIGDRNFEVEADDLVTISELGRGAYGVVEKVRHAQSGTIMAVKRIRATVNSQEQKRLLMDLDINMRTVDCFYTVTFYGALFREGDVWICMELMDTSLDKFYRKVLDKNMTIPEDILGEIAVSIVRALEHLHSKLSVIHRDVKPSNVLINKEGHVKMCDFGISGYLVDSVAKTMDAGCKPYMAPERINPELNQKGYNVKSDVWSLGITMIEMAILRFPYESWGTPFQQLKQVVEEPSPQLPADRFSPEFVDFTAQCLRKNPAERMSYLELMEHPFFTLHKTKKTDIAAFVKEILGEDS
Assay: Binding affinity to CM5 chip immobilized human MKK3 (20 to 347 residues) expressed in Escherichia coli BL21 (DE3) assessed as dissociation constant, Kd by surface plasmon resonance analysis

Compound: COc1ccc([C@H]2CC(=O)c3cc(OC)cc(OC)c32)cc1
- koff: 0.00361 s⁻¹
